≈ marks a conversion by molar mass, not a printed value.
Columns and labels:
interleukin-1 = experiment: Enhancement of the production of interleukin-1 in vivo (uptake of 3H-TdR by D10.G4.1 cells); set-up: species or system CDF1 mice
Protocol: (5) Experiments for estimation of the activity of the antibiotic MI43-37F11 substance to enhance the production of interleukin-1 in vivo was conducted by the following procedure. Thus, MI43-37F11 substance was orally administered to CDF1 mice (female, 6-week old) B at a dosage of 25 mg/kg. One day, 3 days, 5 days and […] the administration, peritoneal exudate cells (PEC) and spleen cells were respectively harvested from the mice of the treated group. The peritoneal exudate cells and spleen cells as harvested were independently divided into two classes, namely the class of the adherent cell which was adherent in its nature to the wall of a plastic dish and the class of the non-adherent cell. The whole peritoneal exudate cells (PEC), the adherent cells of PEC and the adherent cells of the spleen cell were separately suspended into aliquots of a culture medium to give a cell concentrations of 1×10^6 cells/well, 2×10^6 cells/well and 2.5×10^6 cells/well, respectively. After the incubation for 24 hours, the supernatants were collected by filtration of the incubated culture media and then assayed for their activity of interleukin-1 (IL-1) according to the method of Jonathan K. et al (see "Lymphokine Research" 3 (4), 175-182, (1984)). Namely, 100 μl of each supernatant obtained as above and Concanavalin A (to a final concentration of 2.5 μg/ml) were added to 100 μl of a cell suspension containing 1 x 10^5 cells/m(of D10.G4.1. cells which will proliferate in the presence of Concanavalin A plus interleukin-1 when the latter compounds are given. The resulting mixture was then incubated for 48 hours and then added with ^3 H-thymidine (^3 H-TdR), followed by further incubation for 16 hours. After this, the rate of uptake of ^3 H-TdR by the D10.G4.1. cells was determined in term of the radio-activity unit of c.p.m. The rate of uptake of ^3 H-TdR in the control group of mice (untreated) was also determined in the same manner as above.

Ehrlich carcinoma = experiment: Therapeutic treatment of Ehrlich carcinoma-bearing mice by oral administration; assay type: in vivo, ICR mice; details: days 1-9, 14th day; for Weight of tumor (mg ± S.D.): control 1,084 ± 256
Protocol: On the 15th day after the transplantation of the carcinoma cells, the mass of the tumor (carcinoma) was surgically removed out of each mouse and weighed. The rate of the reduction in the weight of the tumor (carcinoma) obtained from the group of mice treated with MI43-37F11 substance was evaluated in term of the rate (%) of inhibition, with such an assumption that the weight of the tumor obtained from the control group of mice was amounting to 100. In other words, the rate (%) of inhibition to the growth of Ehrlich carcinoma was calculated according to the following equation [formula] where C means the weight of the tumor in the control group of mice (untreated) and T means the weight of the tumor of the treated group of mice.
(b) Another experiments for therapeutic treatment of Ehrlich carcinoma-bearing mice were conducted by oral administration of MI43-37F11 substance. Thus, the cell suspension of Ehrlich ascites carcinoma cells was subcutaneously inoculated at the abdominal region of ICR mice (female, 6-week old, 5 mice in each treated group) so that the number of the carcinoma cells as subcutaneously implanted was 2×10^6 cells per mouse. The MI43-37F11 substance was orally administered to the mice of the treated group at a dosage of 6.3 mg/kg, 12.5 mg/kg, 25 mg/kg, […] or 100 mg/kg once a day during the consecutive 9 days from the 1st day to the 9th day after the implantation of the carcinoma cells. On the 14th day after the implantation of the carcinoma cells, the mass of the tumor (carcinoma) was surgically removed out of each mouse and weighed. The weight of the tumor obtained from the treated group of mice was compared with the weight of the tumor obtained from the control group of mice (untreated), by calculating the rate (%) of inhibition according to the same equation as above.

mouse IMC carcinoma = experiment: Inhibition of proliferation of mouse IMC carcinoma cells; assay type: cell-based; details: 48 h, 37° C, 2 days
Protocol: A cell suspension containing cells of mouse Leukemia L1210, mouse Leukemia P388, mouse Leukemia EL4, mouse IMC carcinoma or human lung cancer LX-1 cells in a culture medium containing 10% calf serum at a cell density of 1 x 10^5 cells/ml was prepared, and 200 μl-portion of the cell suspension so prepared was placed in a microplate and then added with a solution of MI43-37F11 substance at varying concentrations (dissolved in a mixture of water and dimethylsulfoxide (95:5)). The cell suspension containing the test compound added was subsequently incubated at 37° C for 2 days (but 5 days for the LX-1 cells).
After the incubation, the number of the cells of the L1210 cells, P388 cells, the EL4 cells and the IMC carcinoma cells in the treated groups was counted by means of Coulter-counter. The control group (untreated) of the cell suspension to which the test compound was not added was incubated in the same way as above and then the number of the cells was similarly counted.
Rate (%) of inhibition of the cell proliferation of the treated group against that of the control group (untreated) was evaluated. […]

Structure (SMILES): COc1cc(O)c2c(=O)oc(CO)cc2c1 [MI43-37F11 substance]
- Uptake of 3H-TdR, T/C % (interleukin-1; adherent cell in PEC, 1 day after 25 mg/kg oral): 165.8%
- Uptake of 3H-TdR, c.p.m. ± S.D. (interleukin-1; adherent cell in PEC, 1 day after 25 mg/kg oral, control 10561 ± 1241, **): 17510 ± 810 c.p.m.
- Uptake of 3H-TdR, T/C % (interleukin-1; adherent cell in PEC, 3 days after 25 mg/kg oral): 131.7%
- Uptake of 3H-TdR, c.p.m. ± S.D. (interleukin-1; adherent cell in PEC, 3 days after 25 mg/kg oral, control 10561 ± 1241, **): 13912 ± 1367 c.p.m.
- Uptake of 3H-TdR, T/C % (interleukin-1; adherent cell in PEC, 5 days after 25 mg/kg oral): 253.4%
- Uptake of 3H-TdR, c.p.m. ± S.D. (interleukin-1; adherent cell in PEC, 5 days after 25 mg/kg oral, control 10561 ± 1241, ***): 26759 ± 3601 c.p.m.
- Uptake of 3H-TdR, T/C % (interleukin-1; adherent cell in PEC, 7 days after 25 mg/kg oral): 167.0%
- Uptake of 3H-TdR, c.p.m. ± S.D. (interleukin-1; adherent cell in PEC, 7 days after 25 mg/kg oral, control 10561 ± 1241, *): 17639 ± 2699 c.p.m.
- Uptake of 3H-TdR, T/C % (interleukin-1; adherent cell in spleen cells, 1 day after 25 mg/kg oral): 83.3%
- Uptake of 3H-TdR, c.p.m. ± S.D. (interleukin-1; adherent cell in spleen cells, 1 day after 25 mg/kg oral, control 2091 ± 481): 1741 ± 352 c.p.m.
- Uptake of 3H-TdR, T/C % (interleukin-1; adherent cell in spleen cells, 3 days after 25 mg/kg oral): 232.8%
- Uptake of 3H-TdR, c.p.m. ± S.D. (interleukin-1; adherent cell in spleen cells, 3 days after 25 mg/kg oral, control 2091 ± 481, **): 4868 ± 497 c.p.m.
- Uptake of 3H-TdR, T/C % (interleukin-1; adherent cell in spleen cells, 5 days after 25 mg/kg oral): 102.3%
- Uptake of 3H-TdR, c.p.m. ± S.D. (interleukin-1; adherent cell in spleen cells, 5 days after 25 mg/kg oral, control 2091 ± 481): 2140 ± 121 c.p.m.
- Uptake of 3H-TdR, T/C % (interleukin-1; adherent cell in spleen cells, 7 days after 25 mg/kg oral): 114.1%
- Uptake of 3H-TdR, c.p.m. ± S.D. (interleukin-1; adherent cell in spleen cells, 7 days after 25 mg/kg oral, control 2091 ± 481): 2385 ± 134 c.p.m.
- enhance the in vivo production of interleukin-1 (interleukin-1; summary in words): effective
- Uptake of 3H-TdR, T/C % (interleukin-1; whole PEC, 1 day after 25 mg/kg oral): 61.3%
- Uptake of 3H-TdR, c.p.m. ± S.D. (interleukin-1; whole PEC, 1 day after 25 mg/kg oral, control 7166 ± 752, **): 4393 ± 397 c.p.m.
- Uptake of 3H-TdR, T/C % (interleukin-1; whole PEC, 3 days after 25 mg/kg oral): 83.6%
- Uptake of 3H-TdR, c.p.m. ± S.D. (interleukin-1; whole PEC, 3 days after 25 mg/kg oral, control 7166 ± 752): 5988 ± 602 c.p.m.
- Uptake of 3H-TdR, T/C % (interleukin-1; whole PEC, 5 days after 25 mg/kg oral): 391.7%
- Uptake of 3H-TdR, c.p.m. ± S.D. (interleukin-1; whole PEC, 5 days after 25 mg/kg oral, control 7166 ± 752, ***): 28072 ± 1174 c.p.m.
- Uptake of 3H-TdR, T/C % (interleukin-1; whole PEC, 7 days after 25 mg/kg oral): 54.5%
- Rate (%) of Inhibition (Ehrlich carcinoma; 6.3 mg/kg/day oral): 45%
- Weight of tumor (mg ± S.D.) (Ehrlich carcinoma; 6.3 mg/kg/day oral, *P < 0.05): 586 ± 282 mg
- Rate (%) of Inhibition (Ehrlich carcinoma; 12.5 mg/kg/day oral): 63%
- Weight of tumor (mg ± S.D.) (Ehrlich carcinoma; 12.5 mg/kg/day oral, **P < 0.01): 391 ± 266 mg
- Rate (%) of Inhibition (Ehrlich carcinoma; 25.0 mg/kg/day oral): 74%
- Weight of tumor (mg ± S.D.) (Ehrlich carcinoma; 25.0 mg/kg/day oral, ***P < 0.001): 280 ± 152 mg
- Rate (%) of Inhibition (Ehrlich carcinoma; 50.0 mg/kg/day oral): 55%
- Weight of tumor (mg ± S.D.) (Ehrlich carcinoma; 50.0 mg/kg/day oral, **P < 0.01): 485 ± 123 mg
- Rate (%) of Inhibition (Ehrlich carcinoma; 100.0 mg/kg/day oral): 47%
- Weight of tumor (mg ± S.D.) (Ehrlich carcinoma; 100.0 mg/kg/day oral, **P < 0.01): 566 ± 421 mg
- IC50 (mouse IMC carcinoma): 72 µg/mL (≈ 324 µM)

Source: US5096924A, “Anticancer antibiotic MI43-37F11 substance” (501 Azidan Hojin Biseibutsu Kagaku Kenkyu Kai, priority 1989, dated 1992)
